Measured values reported in patent publication US20060264411A1, “Control of biofilm formation” (priority 2005, published 2006).

Columns and labels:
[1] = test system: P. aeruginosa strain PAO1; experiment: Rotating disk reactor (RDR) biofilm test with and without tobramycin; type: cell-based, Pseudomonas aeruginosa; settings: test compound 100 μg/ml 24 h; for Test Compound, log10 CFU: no tobramycin; for Tobramycin and Test Compound, log10 CFU: then tobramycin 100 μg/ml 2 h
Experimental: Biofilm formation of P. aeruginosa was evaluated using a standardized biofilm method with a rotating disk reactor (RDR). This method provides a model resembling the formation of biofilms in cystic fibrosis patients. The rotating disk reactor consists of a one-liter glass beaker fitted with a drain spout. The bottom of the vessel contains a magnetically driven rotor with six 1.27 cm diameter coupons constructed from polystyrene. The rotor consists of a star-head magnetic stir bar upon which a disk was affixed to hold the coupons. The vessel with the stir bar was placed on a stir plate and rotated to provide fluid shear. A nutrient solution (AB Trace Medium with 0.3 mM glucose, see Table 1 below for composition) was added through a stopper in the top of the reactor at a flow rate of 5 ml/min. The reactor volume was approximately 180 ml and varied slightly between reactors depending on the placement of the drain spout and the rotational speed of the rotor. At a volume of 180 ml, the residence time of the reactors was 36 minutes. The reactors were operated at room temperature (c.a. 26° C.).
For each test, two RDRs were operated in parallel with one receiving test compound and the other serving as an untreated control. The RDRs were sterilized by autoclave, then filled with sterile medium and inoculated with P. aeruginosa strain PAO1. The reactors were then incubated at room temperature in batch mode (no medium flow) for a period of 24 hours, after which the flow was initiated for a further 24 hour incubation. Test compounds were dissolved in 10 ml ethanol to achieve a concentration of 1.8 mg/ml. After the 48 hours of biofilm development described above, the 10 ml of ethanol containing the test compounds were added to the reactor to achieve a final concentration of approximately 50, 100, or 200 μg/ml. Control reactors received 10 ml of ethanol. The reactors were then incubated for an additional 24 hours in batch (no flow) mode. After this incubation period, the six coupons were removed from each reactor and placed in 12-well polystyrene tissue culture plates with wells containing either 2 ml of a 100 μg/ml tobramycin solution or 2 ml of phosphate-buffered saline (PBS). These plates were incubated at room temperature for two hours. The coupons were then rinsed by three transfers to plates containing 2 ml of fresh PBS. For each two RDR reactors run in parallel, four sets of three coupons were obtained: one set with no test compound treatment and no tobramycin treatment, one set with no test compound treatment and tobramycin treatment, one set treated with a test compound treatment and no tobramycin treatment, and one set treated with a test compound treatment and tobramycin. After rinsing, one coupon of each set of three was stained with a LIVE/DEAD® BacLight™ Bacterial Viability Kit (Molecular Probes, Eugene Oreg.) and imaged using epifluorescent microscopy. The remaining two coupons were placed in 10 ml of PBS and sonicated for five minutes to remove and disperse biofilm cells. The resulting bacterial suspensions were then serially diluted in PBS and plated on tryptic soy agar plates for enumeration of culturable bacteria. The plates were incubated for 24 hours at 37° C. before colony forming units (CFU) were determined.
The results are averages from experiments performed on three separate days for each test compound. The values reported are as log10 CFU.

[2] = test system: E. coli clinical strain UTI89; experiment: Biofilm formation inhibition, crystal violet, E. coli clinical strain UTI89; type: cell-based; settings: Escherichia coli, 20 ug/ml, read-out: inhibited biofilm formation
Experimental: (§1) Biofilm inhibition experiments were conducted using an assay adapted from the reported protocol described in Pratt and Kolter, 1998, Molecular Microbiology, 30: 285-293; Li et al., 2001, J. Bacteriol., 183: 897-908. E. coli clinical strain UTI89 was grown in LB in 96 well plates at room temperature for one or two days without shaking. E. coli laboratory strain JM109 was grown in LB plus 0.2% glucose in 96 well plates at room temperature for one day without shaking. To quantify the biofilm mass, the suspension culture was poured out and the biofilm was washed three times with water. The biofilm was stained with 0.1% crystal violet for 20 minutes. The plates were then washed three times with water. OD reading at 540 nm was measured to quantify the biofilm mass at the bottom of the wells. Then 95% ethanol was added to dissolve the dye at the bottom and on the wall and the OD reading at 540 nm was measured to quantify the total biofilm mass. To study the overall effect of the compounds (3.6 mg/mL in 100% ethanol as stock solution), it was added with the inoculation and a time course of biofilm mass was measured. Appropriate amounts of 100% ethanol were added to each sample to eliminate the effect of solvent. Each condition had 3-4 replicates on each plate and was performed over multiple days.

E. coli UTI89[pCOMGFP] = experiment: Biofilm pods / intracellular bacterial communities (IBC) in mouse bladders, confocal microscopy; type: in vivo, C3H/HeN mice; settings: for reduction in biofilm pods or intracellular bacterial communities (IBC) in the bladders of mice as compared to the controls: experiment 1: 40 μg/ml intravesical, 30 min pre-incubation, 10^8 CFU, five hours
Experimental: The experiment was performed using the procedures described in Justice, S. et al., Differentiation and development pathways of uropathogenic Escherichia coli in urinary tract pathogenesis.PNAS, 2004, 101(5), p. 1333-1338. Briefly, E. coli UTI89[pCOMGFP] was prepared after retrieval from frozen stocks by inoculating in LB medium statically for approximately 20 hours. Cells were harvested and suspended in 1 ml of PBS. Cells were diluted to achieve approximately a 10^8 CFU or 10^7 CFU input into C3H/HeN mice (2 mice per group).
Mice were deprived of water for approximately two hours. In experiment 1, all mice were anesthetized with 0.15 cc ketamine cocktail. In experiment 2, all mice were anesthetized with isofluorane. In experiment 1, urine was dispelled from the bladders and approximately 40 μg/ml of test compound or an appropriate amount of ethanol as control was introduced into the bladders via catheterization of the urethra using a tubing coated tuberculin syringe. 30 minutes was allowed to elapse. In experiment 2, bladders were not pre-incubated with test compounds. Bladders were then expelled and an inoculum of 10^8 CFU (Experiment 1) or 10^7 CFU (Experiment 2) of E. coli containing 40 μg/ml of test compound or equivalent amount of ethanol as controls were introduced into the bladders as indicated above.
In experiment 1 five hours elapsed and in experiment 2 six hours elapsed, and then mice were anesthetized and sacrificed. The bladders were removed, bisected, stretched, and fixed in 3% paraformaldehyde for 1 hour at room temperature. Bladders were then permeabilized in 0.01% Triton/PBS for 10 minutes and counter stained with TOPRO3 (Molecular Probes) for 10 minutes for visualization by confocal microscopy. Bladders were mounted on Prolong antifade (Molecular Probes).

[3] = test system: E. coli clinical strain UTI89; experiment: Invasion of E. coli UTI89 into bladder epithelial cells; type: cell-based
Experimental: The effect of test compounds on bacterial invasion of E. coli clinical strain UTI89 was studied as described in Elsinghorst, et al. 1994, Methods Enzymol, 236:405-420; and Martinez et al., 2000, EMBO J., 19:2803-2812. Epithelial bladder cells were grown in plates. Asiatic acid, corosolic acid, or ursolic acid were added at concentrations of 10 μg/ml, 20 μg/ml, or 40 μg/ml to bacteria and epithelial cells for approximately 5, 15, 30, or 60 minutes with approximately 10^7 CFU of E. coli. Binding was assessed at time zero and invasion was assessed at approximately 5, 15, 30, or 60 minutes from completing the mixture of compound, bacteria, and epithelial cells. As a control ethanol was added to cells to a final concentration of 0.1%. The effect of bacterial viability and bacterial adherence during the infection period was evaluated according to the methods described in Martinez et al., 2000, EMBO J., 19:2803-2812.

[4] = Bladder concentrations in rats after oral dose; settings: rat, in vivo; rats; 50 mg/kg oral, single bolus in 50% Labrasol; at 24 hours; read-out: concentration in the bladder
Experimental: Pharmacokinetic studies of asiatic acid and madecassic acid in rats were performed separately. Asiatic acid and madecassic acid were evaluated at 50 mg/kg (oral). Two animals were assigned to each group. Prior to dosing, a baseline blood sample was taken from each animal. At time zero, asiatic acid and madecassic acid, a single bolus dose in 50% Labrasol (Gattefosse) was given to each animal. Bladders were analyzed at 24 hours. Concentrations of both asiatic acid and madecassic acid in the bladder were approximately 30 μg/g at 24 hours.

bacterial invasion = experiment: Bacterial invasion statement of Example 9; settings: within 15 minutes of administration
[5] = test system: E. coli laboratory strain JM109; experiment: Biofilm formation inhibition, crystal violet, E. coli laboratory strain JM109; type: cell-based; settings: Escherichia coli, read-out: inhibited biofilm formation as compared to the controls
Experimental: as §1

cysB gene = settings: examples of U.S. patent application Ser. No. 11/085,279; cited from earlier work
[6] = 40 μg/ml, 60 minutes, separate experiments (n=4-7)

| Compound | Test Compound, log10 CFU [1] [log10 CFU] | Tobramycin and Test Compound, log10 CFU [1] [log10 CFU] | inhibition at 20 µg/mL [2] [%] | reduction in biofilm pods or intracellular bacterial communities (IBC) in the bladders of mice as compared to the controls (E. coli UTI89[pCOMGFP]) [%] | reduction in large biofilm pods or large IBC in the bladders of mice as compared to the controls (E. coli UTI89[pCOMGFP]; experiment 2: 40 μg/ml with inoculum, no pre-incubation, 10^7 CFU, six hours) [%] | appearance of E. coli in mouse bladder, confocal microscopy image (FIG. 3) (E. coli UTI89[pCOMGFP]; mouse inoculated with E. coli UTI89 and compound, control shows an IBC (FIG. 2)) | reduced invasion of E. coli into bladder epithelial cells as compared to the controls ([3]; 20 μg/ml, 60 minutes, separate experiments (n=4)) [%] | reduced invasion of E. coli into bladder epithelial cells as compared to the controls ([3]; 40 μg/ml, 5 minutes, time series, triplicate) [%] | reduced invasion of E. coli into bladder epithelial cells as compared to the controls ([3]; 40 μg/ml, 15 minutes, time series, triplicate) [%] | reduced invasion of E. coli into bladder epithelial cells as compared to the controls [3, 6] [%] | reduced invasion of E. coli into bladder epithelial cells as compared to the controls ([3]; 40 μg/ml, 60 minutes, time series, triplicate) [%] | concentration at 24 h [4] [ng/g] | bacterial invasion (in words) (bacterial invasion) | inhibition at 5 µg/mL ([5]; JM 109, 5 ug/ml) [%] | inhibition at 10 µg/mL ([5]; JM 109, 10 ug/ml) [%] | expression of a cysB gene in E. coli (cysB gene) |
| --- | --- | --- | --- | --- | --- | --- | --- | --- | --- | --- | --- | --- | --- | --- | --- | --- |
| C[C@H]1[C@H](C)CC[C@]2(C(=O)O)CC[C@]3(C)C(=CC[C@@H]4[C@@]5(C)C[C@@H](O)[C@H](O)C(C)(C)[C@@H]5CC[C@]43C)[C@H]12 [Corosolic acid, corosolic acid] | 7.3 | 4.2 | ~85 | 94 | ~60 | small collection of E coli | 65 | 10 | 70 | 90 | 90 | – | – | – | – | – |
| C[C@H]1[C@H](C)CC[C@]2(C(=O)O)CC[C@]3(C)C(=CC[C@@H]4[C@@]5(C)C[C@@H](O)[C@H](O)[C@@](C)(CO)[C@@H]5[C@H](O)C[C@]43C)[C@H]12 [Madecassic acid, madecassic acid] | 7.5 | 5.5 | – | – | – | – | – | – | – | – | – | ~30000 | significantly reduced bacterial invasion | ~60 | ~75 | – |
| C[C@H]1[C@H](C)CC[C@]2(C(=O)O)CC[C@]3(C)C(=CC[C@@H]4[C@@]5(C)CC[C@H](O)C(C)(C)[C@@H]5CC[C@]43C)[C@H]12 [ursolic acid] | – | – | – | 70 | – | – | – | – | – | 76 | – | – | – | – | – | modulate the expression of a cysB gene |
